Experimental data: patent US9586951B2 (FUJIFILM Corporation, priority 2013, dated 2017)
pIC50: −log10 of the molar value.

Key:
ATM = target: T1, ATM (Homo sapiens, UniProt Q13315); assay: ATM inhibition test (phosphorylation of Chk2 generated by ionizing radiation, AlphaScreen SureFire); format: cell-based; details: phosphorylated Chk2 in NCI-H460 cells, ionizing radiation 8Gy, 1 hour after test compound treatment; read-out: ATM inhibitory activity
T1 construct: detecting phosphorylation of Chk2 in a human non-small cell lung cancer cell line NCI-H460 (ATCC company); host or cells: NCI-H460 human non-small cell lung cancer cells
How it was run: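 Phosphorylated Chk2 read by AlphaScreen SureFire in human non-small cell lung cancer NCI-H460 cells, 1 hour after 8Gy ionizing radiation at 37° C. Compound added 1 hour before irradiation. Percent inhibition normalised between irradiated and non-irradiated drug-untreated signals.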

[1] = test system: human non-small cell lung cancer cell line NCI-H460; assay: Cell proliferation inhibition test by sensitivity-enhancing to ionizing radiation (Cell Titer Glo); format: cell-based; details: Homo sapiens, NCI-H460, 120 h, concentration in which SER became 2; NCI-H460 cells, ionizing radiation 2 Gy, cultured 120 hour
How it was run: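 Radiosensitisation measured as SER, a ratio of Cell Titer Glo luminescence in irradiated vs unirradiated plates relative to DMSO; SER2, the concentration yielding SER 2, came from sigmoidal regression. Compound (0.1% DMSO) was given 24 h post-seeding, 2 Gy applied 30 min later, then 120 hour culture at 37° C.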

T1 sequence (Q13315 whole entry): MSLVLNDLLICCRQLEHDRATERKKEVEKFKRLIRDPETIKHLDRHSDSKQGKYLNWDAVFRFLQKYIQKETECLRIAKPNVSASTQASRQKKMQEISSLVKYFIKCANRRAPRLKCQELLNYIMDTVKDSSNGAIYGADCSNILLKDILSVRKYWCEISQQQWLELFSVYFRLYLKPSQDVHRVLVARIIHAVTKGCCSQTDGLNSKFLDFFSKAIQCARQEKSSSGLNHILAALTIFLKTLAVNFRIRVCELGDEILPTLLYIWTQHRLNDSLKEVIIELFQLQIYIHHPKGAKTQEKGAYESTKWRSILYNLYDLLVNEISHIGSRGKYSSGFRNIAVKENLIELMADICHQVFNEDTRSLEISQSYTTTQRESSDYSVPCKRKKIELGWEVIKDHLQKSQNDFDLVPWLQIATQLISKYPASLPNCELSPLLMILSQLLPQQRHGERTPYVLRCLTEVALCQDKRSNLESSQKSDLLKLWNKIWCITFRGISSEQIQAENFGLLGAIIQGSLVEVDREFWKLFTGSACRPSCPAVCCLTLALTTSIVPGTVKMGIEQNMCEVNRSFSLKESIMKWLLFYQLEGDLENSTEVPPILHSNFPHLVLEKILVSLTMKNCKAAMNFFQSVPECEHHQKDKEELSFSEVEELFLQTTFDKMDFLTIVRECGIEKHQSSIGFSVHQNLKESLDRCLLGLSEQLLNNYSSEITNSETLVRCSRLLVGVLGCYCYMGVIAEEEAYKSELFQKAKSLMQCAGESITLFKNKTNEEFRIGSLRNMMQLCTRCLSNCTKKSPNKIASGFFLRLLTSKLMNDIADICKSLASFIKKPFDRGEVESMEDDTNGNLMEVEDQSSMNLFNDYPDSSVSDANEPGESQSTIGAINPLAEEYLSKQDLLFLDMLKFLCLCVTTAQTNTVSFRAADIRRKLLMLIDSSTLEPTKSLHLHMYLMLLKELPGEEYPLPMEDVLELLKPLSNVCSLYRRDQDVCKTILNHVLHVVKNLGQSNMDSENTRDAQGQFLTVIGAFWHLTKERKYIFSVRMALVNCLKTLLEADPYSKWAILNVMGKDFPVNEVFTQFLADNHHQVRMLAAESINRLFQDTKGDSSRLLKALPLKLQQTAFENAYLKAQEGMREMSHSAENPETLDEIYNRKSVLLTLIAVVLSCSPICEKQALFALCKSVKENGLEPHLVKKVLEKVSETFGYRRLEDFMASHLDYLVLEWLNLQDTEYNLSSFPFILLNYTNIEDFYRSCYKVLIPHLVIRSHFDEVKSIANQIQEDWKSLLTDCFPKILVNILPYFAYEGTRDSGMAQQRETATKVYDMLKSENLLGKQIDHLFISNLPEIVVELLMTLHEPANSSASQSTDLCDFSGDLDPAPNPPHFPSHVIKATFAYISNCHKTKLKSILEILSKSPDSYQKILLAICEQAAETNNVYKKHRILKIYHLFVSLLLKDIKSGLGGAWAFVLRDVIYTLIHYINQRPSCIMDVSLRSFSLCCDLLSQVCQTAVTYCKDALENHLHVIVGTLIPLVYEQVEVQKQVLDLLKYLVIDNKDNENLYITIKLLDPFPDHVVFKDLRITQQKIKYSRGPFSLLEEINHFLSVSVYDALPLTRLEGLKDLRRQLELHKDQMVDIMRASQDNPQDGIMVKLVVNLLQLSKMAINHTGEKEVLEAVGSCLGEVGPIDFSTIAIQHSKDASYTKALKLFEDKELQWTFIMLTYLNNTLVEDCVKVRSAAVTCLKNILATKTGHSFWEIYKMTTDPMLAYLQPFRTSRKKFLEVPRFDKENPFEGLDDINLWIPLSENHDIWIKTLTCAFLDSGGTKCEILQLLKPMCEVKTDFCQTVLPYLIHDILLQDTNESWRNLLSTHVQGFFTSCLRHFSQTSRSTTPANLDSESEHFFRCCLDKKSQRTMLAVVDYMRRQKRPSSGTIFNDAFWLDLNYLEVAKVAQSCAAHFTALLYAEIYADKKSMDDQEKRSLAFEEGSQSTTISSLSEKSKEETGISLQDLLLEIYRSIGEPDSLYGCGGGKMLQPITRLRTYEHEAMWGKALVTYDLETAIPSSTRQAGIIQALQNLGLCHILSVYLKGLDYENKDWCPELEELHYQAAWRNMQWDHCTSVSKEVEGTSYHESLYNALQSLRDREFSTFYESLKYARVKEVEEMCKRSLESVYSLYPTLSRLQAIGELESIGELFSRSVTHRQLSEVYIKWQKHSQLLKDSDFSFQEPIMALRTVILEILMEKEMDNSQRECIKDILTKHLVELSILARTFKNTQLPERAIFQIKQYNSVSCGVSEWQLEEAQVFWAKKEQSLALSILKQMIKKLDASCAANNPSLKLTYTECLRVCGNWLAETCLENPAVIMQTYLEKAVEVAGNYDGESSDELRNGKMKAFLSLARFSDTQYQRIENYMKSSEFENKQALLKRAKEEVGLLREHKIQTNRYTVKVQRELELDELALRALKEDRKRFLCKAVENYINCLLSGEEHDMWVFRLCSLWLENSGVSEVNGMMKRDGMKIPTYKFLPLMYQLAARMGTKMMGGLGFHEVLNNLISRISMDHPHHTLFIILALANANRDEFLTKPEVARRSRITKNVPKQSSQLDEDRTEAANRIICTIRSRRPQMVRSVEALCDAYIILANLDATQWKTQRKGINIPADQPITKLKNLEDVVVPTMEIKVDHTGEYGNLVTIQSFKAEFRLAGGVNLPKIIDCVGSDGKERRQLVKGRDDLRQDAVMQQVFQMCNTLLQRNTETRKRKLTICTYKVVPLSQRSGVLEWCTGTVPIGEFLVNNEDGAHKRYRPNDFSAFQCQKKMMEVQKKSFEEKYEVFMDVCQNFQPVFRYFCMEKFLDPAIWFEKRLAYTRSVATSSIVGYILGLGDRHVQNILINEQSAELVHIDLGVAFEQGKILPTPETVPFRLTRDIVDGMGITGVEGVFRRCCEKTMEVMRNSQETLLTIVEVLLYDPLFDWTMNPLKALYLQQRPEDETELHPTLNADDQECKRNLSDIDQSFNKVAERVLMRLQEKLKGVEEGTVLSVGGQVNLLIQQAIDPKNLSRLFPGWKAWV

SMILES	pIC50 (ATM)	SER2 (concentration at which the radiation sensitivity-enhancement ratio reaches 2) [1] [nM]
CC(Nc1ccc2c(c1)Cc1cccc(-c3cc(N4CCOCC4)cc(=O)[nH]3)c1O2)c1cc(Cl)ccn1 (single isomer, unassigned) [Example 2-14-89-2, 6-(7-((1-(4-chloropyridin-2-yl)ethyl)amino)-9H-xanthen-4-yl)-4-morpholinopyridin-2(1H)-one]	> 7.00	< 100
Cc1cnc(C(C)Nc2ccc3c(c2)Cc2cccc(-c4cc(N5CCOCC5)cc(=O)[nH]4)c2O3)cn1 (single isomer, unassigned) [Example 2-14-90-2, 6-(7-((1-(5-methylpyrazin-2-yl)ethyl)amino)-9H-xanthen-4-yl)-4-morpholinopyridin-2(1H)-one]	> 7.00	< 100
Cc1cccc(C(CO)Nc2ccc3c(c2)Cc2cccc(-c4cc(N5CCOCC5)cc(=O)[nH]4)c2O3)n1 (single isomer, unassigned) [Example 2-14-92-2, 6-(7-((2-hydroxy-1-(6-methylpyridin-2-yl)ethyl)amino)-9H-xanthen-4-yl)-4-morpholinopyridin-2(1H)-one]	6.30 to 7.00	< 100
CC(Nc1ccc2c(c1)Cc1cccc(-c3cc(N4CCOCC4)cc(=O)[nH]3)c1O2)c1nccc(CF)n1 (single isomer, unassigned) [Example 2-14-94-1, 6-(7-((1-(4-(fluoromethyl)pyrimidin-2-yl)ethyl)amino)-9H-xanthen-4-yl)-4-morpholinopyridin-2(1H)-one]	> 7.00	< 100
Cc1ccc(C(Nc2ccc3c(c2)Sc2cccc(-c4cc(N5CCOCC5)cc(=O)[nH]4)c2S3)[C@H]2CN(C(=O)CN(C)C)CCO2)nc1 (single isomer, unassigned) [Example 10-1]	6.30 to 7.00	< 100
Cc1ccc(C(Nc2ccc3c(c2)Sc2cccc(-c4cc(N5CCOCC5)cc(=O)[nH]4)c2S3)[C@H]2CN(CCN(C)C)CCO2)nc1 (single isomer, unassigned) [Example 10-2]	> 7.00	< 100
Nc1ccc2c(c1)Sc1cccc(-c3cc(N4CCOCC4)cc(=O)[nH]3)c1S2 [Example 1-1, 6-(7-aminothianthren-1-yl)-4-morpholinopyridin-2(1H)-one]	> 7.00	500 to 2000
O=c1cc(N2CCOCC2)cc(-c2cccc3c2Sc2ccc(NCCN4C5CCC4COC5)cc2S3)[nH]1 [Example 1-10-5, 6-(7-((2-(3-oxa-8-azabicyclo[3.2.1]octan-8-yl)ethyl)amino)thianthren-1-yl)-4-morpholinopyridin-2(1H)-one]	> 7.00	100 to 500
O=c1cc(N2CCOCC2)cc(-c2cccc3c2Sc2ccc(NCCN4CCOCC4)cc2S3)[nH]1 [Example 1-10-7, 4-Morpholino-6-(7-((2-morpholinoethyl)amino)thianthren-1-yl)pyridin-2 (1H)-one]	> 7.00	100 to 500
CN1CCN(CCNc2ccc3c(c2)Sc2cccc(-c4cc(N5CCOCC5)cc(=O)[nH]4)c2S3)CC1 [Example 1-10-9, 6-(7-((2-(4-Methylpiperazin-1-yl)ethyl)amino)thianthren-1-yl)-4-morpholino pyridin-2(1H)-one]	> 7.00	100 to 500
O=c1cc(N2CCOCC2)cc(-c2cccc3c2Sc2ccc(NCCN4CCCCC4)cc2S3)[nH]1 [Example 1-10-10]	> 7.00	100 to 500
C[C@@H]1CN(CCNc2ccc3c(c2)Sc2cccc(-c4cc(N5CCOCC5)cc(=O)[nH]4)c2S3)C[C@H](C)O1 [Example 1-10-14, 6-(7-((2-((2S,6R)-2,6- Dimethylmorpholino)ethyl)amino)thianthren-1-yl)-4-morpholino pyridin-2(1H)-one]	> 7.00	100 to 500
COc1cncc(C(C)Nc2ccc3c(c2)Sc2cccc(-c4cc(N5CCOCC5)cc(=O)[nH]4)c2S3)c1 (centres unmarked) [Example 1-12-9, 6-(7-((1-(5-Methoxypyridin-3-yl)ethyl)amino)thianthren-1-yl)-4-morpholino pyridin-2(1H)-one]	> 7.00	100 to 500

Further lines, with some results ahead:

pIC50 (ATM)	SMILES	SER2 (concentration at which the radiation sensitivity-enhancement ratio reaches 2) [1] [nM]
> 7.00	Cc1cccc(CNc2ccc3c(c2)Sc2cccc(-c4cc(N5CCOCC5)cc(=O)[nH]4)c2S3)n1 [Example 1-12-2, 6-(7-(((6-Methylpyridin-2-yl)methyl)amino)thianthren-1-yl)-4-1-morpholino pyridin-2 (1H)-one]	< 100
> 7.00	O=c1cc(N2CCOCC2)cc(-c2cccc3c2Sc2ccc(NCc4cc(Cl)ccn4)cc2S3)[nH]1 [Example 1-12-3, 6-(7-(((4-Chloropyridin-2-yl)methyl)amino)thianthren-1-yl)-4-morpholino pyridin-2 (1H)-one]	100 to 500
> 7.00	COc1ccnc(CNc2ccc3c(c2)Sc2cccc(-c4cc(N5CCOCC5)cc(=O)[nH]4)c2S3)c1 [Example 1-12-4]	100 to 500
> 7.00	Cc1ccnc(CNc2ccc3c(c2)Sc2cccc(-c4cc(N5CCOCC5)cc(=O)[nH]4)c2S3)c1 [Example 1-12-5, 6-(7-(((4-Methylpyridin-2-yl)methyl)amino)thianthren-1-yl)-4-morpholino pyridin-2 (1H)-one]	100 to 500
> 7.00	O=c1cc(N2CCOCC2)cc(-c2cccc3c2Sc2ccc(NCc4cccc(Cl)n4)cc2S3)[nH]1 [Example 1-12-6, 6-(7-(((6-Chloropyridin-2-yl)methyl)amino)thianthren-1-yl)-4-morpholino pyridin-2 (1H)-one]	100 to 500
> 7.00	CN(C)c1ncc(CNc2ccc3c(c2)Sc2cccc(-c4cc(N5CCOCC5)cc(=O)[nH]4)c2S3)cn1 [Example 1-12-11, 6-(7-(((2-(Dimethylamino)pyrimidin-5-yl)methyl)amino)thianthren-1-yl)-4-morpholino pyridin-2(1H)-one]	100 to 500
> 7.00	Cc1ccc(CNc2ccc3c(c2)Sc2cccc(-c4cc(N5CCOCC5)cc(=O)[nH]4)c2S3)nc1 [Example 1-12-13, 6-(7-(((5-Methylpyridin-2-yl)methyl)amino)thianthren-1-yl)-4-morpholino pyridin-2 (1H)-one]	100 to 500
> 7.00	O=c1cc(N2CCOCC2)cc(-c2cccc3c2Sc2ccc(NCc4cc(C5CC5)ccn4)cc2S3)[nH]1 [Example 1-12-14, 6-(7-(((4-Cyclopropylpyridin-2-yl)methyl)amino)thianthren-1-yl)-4-morpholino pyridin-2(1H)-one]	100 to 500
> 7.00	Cc1ccc(CNc2ccc3c(c2)Sc2cccc(-c4cc(N5CCOCC5)cc(=O)[nH]4)c2S3)cn1 [Example 1-12-15, 6-(7-(((6-Methylpyridin-3-yl)methyl)amino)thianthren-1-yl)-4-morpholino pyridin-2 (1H)-one]	100 to 500
